According to US9006252B2, “Fused multicyclic compounds as protein kinase inhibitors” (National Health Research Institutes, priority 2008, dated 2015):
Values joined by “and” are separate entries in the source; they are usually repeats but may differ in a detail not shown here. Identical values can stand only once.

Tests used:
[1] = system: HCT-116 colon tumor xenograft; assay: In vivo anticancer efficacy in colon tumor xenograft mice (injected with HCT-116); set-up: species or system nude mice; conditions: for tumor growth suppression (in words): versus VX-680 at 50 mg/kg
Description: In vivo anticancer efficacy of the compounds of this invention was assessed using colon tumor xenograft mice (injected with HCT-116), as described in Cancer Research 2004, 64, 4621-4628.
(§1) HCT-116 cells were injected via s.c. in nude mice to form colon tumor xenograft mice. Mice bearing tumors with a size of ˜100 mm^3 were randomly assigned to three groups: a vehicle control group (10 mice), a positive control group (10 mice), and a treatment group (21 mice). Of the treated mice, ten received Compound 3 at a daily dosage of 25 mg/kg via IV injection through the tail veins for 5 days/week for 2 consecutive weeks (days 1-5 and 8-12) and eleven received the same compound at a daily dosage of 50 mg/kg via IV injection through the tail veins for 5 consecutive days (days 1-5). The positive control mice received VX-680 (a known anti-cancer drug) at a daily dosage of 50 mg/kg, also via IV injection through the tail veins for 5 days/week for 2 consecutive weeks (days 1-5 and 8-12).
as §1, with “Compound 4” for “Compound 3”, “of 5 mg/kg and eleven received the same compound at a daily dosage of 15” for “of 25”, “and 8-12).” for “and 8-12) and eleven received the same compound at a daily dosage of 50 mg/kg via IV injection through the tail veins for 5 consecutive days (days 1-5).”, “VX-680” for “VX-680 (a known anti-cancer drug)”

Aurora A = biological target: T1, Aurora A (Homo sapiens, UniProt O14965); assay: Aurora Kinase A luminescent kinase assay (Kinase-Glo); assay type: biochemical; conditions: IC50 values (concentration of a test compound at which activity of 50% of Aurora A is inhibited), GST-tAurora A (123-401aa) fusion protein
T1 construct: GST-tAurora A (123-401aa) fusion protein obtained above; made in house; host or cells: Sf9 insect cells (baculovirus, pBacPAK8)
T1 sequence (O14965 123-401): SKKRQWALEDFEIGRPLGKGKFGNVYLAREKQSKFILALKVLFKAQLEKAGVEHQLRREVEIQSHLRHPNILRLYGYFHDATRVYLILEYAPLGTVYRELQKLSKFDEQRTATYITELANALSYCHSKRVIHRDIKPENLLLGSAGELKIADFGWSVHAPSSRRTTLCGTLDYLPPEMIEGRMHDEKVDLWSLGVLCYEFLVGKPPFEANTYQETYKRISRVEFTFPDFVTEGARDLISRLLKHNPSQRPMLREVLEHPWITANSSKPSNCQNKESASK
Description: The Aurora A catalytic domain with an N-terminal GST tag was constructed in pBacPAK8 plasmid and expressed in sf9 cells. […] To concentrate GST-tAurora A, buffer was replaced with Tris buffer (100 mM Tris (pH 7.5), 300 mM NaCl, 1 mM EDTA, 4 mM DTT) using Amicon ultra-15 (MWCO:30K, Millipore) to 2.4 mg/ml. After the addition of equal volume of glycerol and 0.04% Triton X-100, the proteins were stored aliquoted at −80° C.
Briefly, a test compound, enzyme, substrate-tetra(LRRWSLG), DTT and ATP were dissolved in Aur buffer (50 mM Tris-HCl pH 7.4, 10 mM NaCl, 10 mM MgCl2, and 100 μg/ml BSA) individually before the assay. […] 5 μM ATP (5 μl), 1 mM DTT (5 μl) and 0.1 mM tetra(LRRWSLG) peptide substrate (5 μl) were added into the reactions of test compounds and GST-tAurora A. The reactions were incubated at 37° C. for 90 min. 50 μl of Kinase-Glo Plus Reagent (V3771, Promega) was added into the reactions, followed by the incubation at 25° C. for 20 min.

HCT-116 cells = assay: HCT-116 cell viability, MTS assay; assay type: cell-based; conditions: Homo sapiens, HCT-116, 96 h, 96-h incubation, MTS; read-out: IC50 values, HCT-116 cell viability
Description: HCT-116 cell viability was examined by the MTS assay (Promega, Madison, Wis., USA). 2000 HCT-116 cells in 100 μL McCoy's 5a medium were seeded in each well of a 96-well plate. After 96-h incubation with a test compound, the cells were incubated with 20 μL of a MTS/PMS mixture (MTS/PMS ratio: 20:1) for 2 h at 37° C. in a humidified incubator with 5% CO2 to allow viable cells to convert the tetrazolium salt (MTS) into formazan. The amount/concentration of formazan, which indicates the number of live cells, was determined by measuring the absorbance at 490 nm using a PerkinElmer Victor2 plate reader (PerkinElmer, Shelton, Conn., USA).

Row | SMILES | IC50 (Aurora A) | IC50 (HCT-116 cells) [nM] | also measured
1 | Cc1cc(Nc2cc(N3CCN(C)CC3)nc(Sc3ccc(NC(=O)C4CC4)cc3)n2)n[nH]1 [VX-680, reference compound] | – | – | tumor size as % of that in the vehicle control animals ([1]; 50 mg/kg daily IV, days 1-5 and 8-12, 22nd day post treatment): 50%
2 | COc1cc2ncnc(NCCc3ccc(NC(=O)Nc4ccccc4CN(C)C)cc3)c2cc1OC [Compound 3, 1-{4-[2-(6,7-Dimethoxy-quinazolin-4-ylamino)-ethyl]-phenyl}-3-(2-dimethylaminomethyl-phenyl)-urea] | < 1000 nM and 51 to 450 nM | < 100 | tumor size as % of that in the vehicle control group ([1]; 25 mg/kg daily IV, days 1-5 and 8-12, 22nd day post treatment): 35%; tumor size as % of that in the vehicle control group ([1]; 50 mg/kg daily IV, days 1-5, 22nd day post treatment): 36%; tumor growth suppression (in words) ([1]; dosages of 25 and 50 mg/kg IV): suppressed tumor growth significantly and better than VX-680
3 | CN(C)CCCOc1ccc2c(NCCc3ccc(NC(=O)Nc4ccccc4)cc3)ncnc2c1 [Compound 4, 1-(4-{2-[7-(3-Dimethylamino-propoxy)-quinazolin-4-ylamino]-ethyl}-phenyl)-3-phenyl-urea] | < 1000 nM and 51 to 450 nM | < 100 | tumor size as % of that in the vehicle control group ([1]; 5 mg/kg daily IV, days 1-5 and 8-12, 22nd day post treatment): 67%; tumor size as % of that in the vehicle control group ([1]; 15 mg/kg daily IV, days 1-5 and 8-12, 22nd day post treatment): 37%; tumor growth suppression (in words) ([1]; dosage of 15 mg/kg IV): suppressed tumor growth significantly and better than VX-680
4 | COc1cc2ncnc(NCCc3ccc(Nc4nc5ccccc5[nH]4)cc3)c2cc1OC [Compound 224] | 1 to 50 nM and < 1000 nM | 101 to 850 | –
5 | COc1cc2ncnc(NCCc3ccc(NC(=O)Nc4ccccc4F)cc3)c2cc1OC [Compound 246] | 51 to 450 nM and < 1000 nM | 101 to 850 | –

Continued, in another order:

Row | IC50 (Aurora A) | IC50 (HCT-116 cells) [nM] | SMILES | also measured
6 | 51 to 450 nM and < 1000 nM | 101 to 850 | O=C(Nc1ccc(CCNc2ncnc3oc(-c4ccncc4)nc23)cc1)Nc1cccc(F)c1 [Compound 250] | –
7 | 51 to 450 nM and < 1000 nM | 101 to 850 | O=C(Nc1ccccc1)Nc1ccc(CCNc2ncnc3oc(-c4cccnc4)nc23)cc1 [Compound 222] | –
8 | 1 to 50 nM and < 1000 nM | < 100 | COc1cc2ncnc(NCCc3ccc(NC(=O)Nc4ccc(F)cc4)cc3)c2cc1OC [Compound 210] | –
9 | 51 to 450 nM and < 1000 nM | < 100 | CN(C)c1ccc2c(NCCc3ccc(NC(=O)Nc4ccccc4)cc3)ncnc2c1 [Compound 233] | –
